Source: patent publication US20100292205A1, “Pyrimidone Compounds As GSK-3 Inhibitors” (PFIZER INC., priority 2006, published 2010)

Each compound was assayed against T1, Recombinant human GSK3β (Homo sapiens, UniProt P49841) (assay: GSK-3β (Glycogen Synthase Kinase) cell free enzyme assay). Conditions: cell free enzyme assay; Examples 62-155.
T1 construct: His-tag; made in house; host or cells: Sf9 insect cells / baculovirus
Format: biochemical
Method in brief: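 Recombinant human GSK3β, expressed in SF9/baculovirus cells and His-tag purified on Ni-NTA Superflow, was preincubated with test agent for 30 minutes at room temperature. Substrate mix was then added to start the reaction in 8 mM MOPS (pH 7.0), 10 mM magnesium acetate, 0.2 mM EDTA, 1 mM DTT, 2 uM cold ATP, 0.025 uCi/well [33P]ATP (120 uL) and 1.0 uM biotinylated peptide. Reactions ran at RT for 60 min.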

T1 sequence (P49841 whole entry): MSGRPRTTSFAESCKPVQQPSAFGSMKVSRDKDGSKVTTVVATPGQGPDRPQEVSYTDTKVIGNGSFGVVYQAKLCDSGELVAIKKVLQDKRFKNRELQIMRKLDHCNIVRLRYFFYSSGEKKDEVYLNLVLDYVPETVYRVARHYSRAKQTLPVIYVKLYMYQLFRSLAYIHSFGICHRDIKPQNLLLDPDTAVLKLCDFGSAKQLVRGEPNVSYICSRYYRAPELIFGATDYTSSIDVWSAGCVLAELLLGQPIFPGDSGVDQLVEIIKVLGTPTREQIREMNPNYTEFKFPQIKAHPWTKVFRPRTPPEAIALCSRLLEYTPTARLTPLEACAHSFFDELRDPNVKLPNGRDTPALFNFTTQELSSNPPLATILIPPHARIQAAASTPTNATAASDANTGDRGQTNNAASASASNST

SMILES	IC50
CN(c1nc(-c2ccncc2F)cc(=O)n1C)[C@H]1[C@@H]2CN(C(=O)c3ccoc3)C[C@@H]21 [Example 105, 6-(3-Fluoropyridin-4-yl)-2-{[(1R,5S,6s)-3-(3-furoyl)-3-azabicyclo[3.1.0]hex-6-yl](methyl)amino}-3-methylpyrimidin-4(3H)-one]	8.81 nM
COc1ccccc1C(=O)N1C[C@@H]2[C@H](C1)[C@H]2N(C)c1nc(-c2ccncc2F)cc(=O)n1C [Example 106, 6-(3-Fluoropyridin-4-yl)-2-{[(1R,5S,6s)-3-(2-methoxybenzoyl)-3-azabicyclo[3.1.0]hex-6-yl](methyl)amino}-3-methylpyrimidin-4(3H)-one]	0.91 nM
CN(c1nc(-c2ccncc2F)cc(=O)n1C)[C@H]1[C@@H]2CN(C(=O)C3CCC3)C[C@@H]21 [Example 107, 2-{[(1R,5S,6s)-3-(Cyclobutylcarbonyl)-3-azabicyclo[3.1.0]hex-6-yl](methyl)amino}-6-(3-fluoropyridin-4-yl)-3-methylpyrimidin-4(3H)-one]	18.4 nM
CN(c1nc(-c2ccncc2F)cc(=O)n1C)[C@H]1[C@@H]2CN(C(=O)C3CCCC3)C[C@@H]21 [Example 108, 2-{[(1R,5S,6s)-3-(Cyclopentylcarbonyl)-3-azabicyclo[3.1.0]hex-6-yl](methyl)amino}-6-(3-fluoropyridin-4-yl)-3-methylpyrimidin-4(3H)-one]	6.39 nM
COc1ccc(CC(=O)N2C[C@@H]3[C@H](C2)[C@H]3N(C)c2nc(-c3ccncc3F)cc(=O)n2C)cc1 [Example 109, 6-(3-Fluoropyridin-4-yl)-2-[{(1R,5S,6s)-3-[(4-methoxyphenyl)acetyl]-3-azabicyclo[3.1.0]hex-6-yl}(methyl)amino]-3-methylpyrimidin-4(3H)-one]	4.03 nM
CN(c1nc(-c2ccncc2F)cc(=O)n1C)[C@H]1[C@@H]2CN(C(=O)c3cccnc3Cl)C[C@@H]21 [Example 111, 2-[{(1R,5S,6s)-3-[(2-Chloropyridin-3-yl)carbonyl]-3-azabicyclo[3.1.0]hex-6-yl}(methyl)amino]-6-(3-fluoropyridin-4-yl)-3-methylpyrimidin-4(3H)-one]	2.2 nM
CN(c1nc(-c2ccncc2F)cc(=O)n1C)[C@H]1[C@@H]2CN(C(=O)c3ccnc(Cl)c3)C[C@@H]21 [Example 112, 2-{[(1R,5S,6s)-3-(2-Chloroisonicotinoyl)-3-azabicyclo[3.1.0]hex-6-yl](methyl)amino}-6-(3-fluoropyridin-4-yl)-3-methylpyrimidin-4(3H)-one]	2.63 nM
CN(c1nc(-c2ccncc2F)cc(=O)n1C)[C@H]1[C@@H]2CN(C(=O)c3ccc(OC(F)F)cc3)C[C@@H]21 [Example 113, 2-[{(1R,5S,6s)-3-[4-(Difluoromethoxy)benzoyl]-3-azabicyclo[3.1.0]hex-6-yl}(methyl)amino]-6-(3-fluoropyridin-4-yl)-3-methylpyrimidin-4(3H)-one]	8.57 nM
CN(c1nc(-c2ccncc2F)cc(=O)n1C)[C@H]1[C@@H]2CN(C(=O)Cc3ccccc3)C[C@@H]21 [Example 115, 6-(3-Fluoropyridin-4-yl)-3-methyl-2-{methyl[(1R,5S,6s)-3-(phenylacetyl)-3-azabicyclo[3.1.0]hex-6-yl]amino}pyrimidin-4(3H)-one]	14.2 nM
CN(c1nc(-c2ccncc2F)cc(=O)n1C)[C@H]1[C@@H]2CN(C(=O)c3cc(Cl)cc(Cl)c3)C[C@@H]21 [Example 116, 2-{[(1R,5S,6s)-3-(3,5-Dichlorobenzoyl)-3-azabicyclo[3.1.0]hex-6-yl](methyl)amino}-6-(3-fluoropyridin-4-yl)-3-methylpyrimidin-4(3H)-one]	4.4 nM
CN(c1nc(-c2ccncc2F)cc(=O)n1C)[C@H]1[C@@H]2CN(C(=O)c3c(F)cc(F)cc3F)C[C@@H]21 [Example 117, 6-(3-Fluoropyridin-4-yl)-3-methyl-2-{methyl[(1R,5S,6s)-3-(2,4,6-trifluorobenzoyl)-3-azabicyclo[3.1.0]hex-6-yl]amino}pyrimidin-4(3H)-one]	1.84 nM
CN(c1nc(-c2ccncc2F)cc(=O)n1C)[C@H]1[C@@H]2CN(C(=O)c3ccccc3F)C[C@@H]21 [Example 118, 2-{[(1R,5S,6s)-3-(2-Fluorobenzoyl)-3-azabicyclo[3.1.0]hex-6-yl](methyl)amino}-6-(3-fluoropyridin-4-yl)-3-methylpyrimidin-4(3H)-one]	1.11 nM
CN(c1nc(-c2ccncc2F)cc(=O)n1C)[C@H]1[C@@H]2CN(C(=O)c3cnn(C)c3Cl)C[C@@H]21 [Example 120, 2-[{(1R,5S,6s)-3-[(5-Chloro-1-methyl-1H-pyrazol-4-yl)carbonyl]-3-azabicyclo[3.1.0]hex-6-yl}(methyl)amino]-6-(3-fluoropyridin-4-yl)-3-methylpyrimidin-4(3H)-one]	4.52 nM
CN(c1nc(-c2ccncc2F)cc(=O)n1C)[C@H]1[C@@H]2CN(C(=O)c3ccc(C(F)(F)F)cc3)C[C@@H]21 [Example 122, 6-(3-Fluoropyridin-4-yl)-3-methyl-2-(methyl{(1R,5S,6s)-3-[4-(trifluoromethyl)benzoyl]-3-azabicyclo[3.1.0]hex-6-yl}amino)pyrimidin-4(3H)-one]	15.1 nM
CCCCOc1ccc(C(=O)N2C[C@@H]3[C@H](C2)[C@H]3N(C)c2nc(-c3ccncc3F)cc(=O)n2C)cc1 [Example 123, 2-{[(1R,5S,6s)-3-(4-Butoxybenzoyl)-3-azabicyclo[3.1.0]hex-6-yl](methyl)amino}-6-(3-fluoropyridin-4-yl)-3-methylpyrimidin-4(3H)-one]	13.6 nM
CN(c1nc(-c2ccncc2F)cc(=O)n1C)[C@H]1[C@@H]2CN(C(=O)c3ccc(F)c(Cl)c3)C[C@@H]21 [Example 124, 2-{[(1R,5S,6s)-3-(3-Chloro-4-fluorobenzoyl)-3-azabicyclo[3.1.0]hex-6-yl](methyl)amino}-6-(3-fluoropyridin-4-yl)-3-methylpyrimidin-4(3H)-one]	4.58 nM
CN(c1nc(-c2ccncc2F)cc(=O)n1C)[C@H]1[C@@H]2CN(C(=O)c3cccc(C(F)(F)F)c3)C[C@@H]21 [Example 125, 6-(3-Fluoropyridin-4-yl)-3-methyl-2-(methyl{(1R,5S,6s)-3-[3-(trifluoromethyl)benzoyl]-3-azabicyclo[3.1.0]hex-6-yl}amino)pyrimidin-4(3H)-one]	2.11 nM
CN(c1nc(-c2ccncc2F)cc(=O)n1C)[C@H]1[C@@H]2CN(C(=O)c3ccc(Cl)nc3)C[C@@H]21 [Example 126, 2-[{(1R,5S,6s)-3-[(6-Chloropyridin-3-yl)carbonyl]-3-azabicyclo[3.1.0]hex-6-yl}(methyl)amino]-6-(3-fluoropyridin-4-yl)-3-methylpyrimidin-4(3H)-one]	6.98 nM
CN(c1nc(-c2ccncc2F)cc(=O)n1C)[C@H]1[C@@H]2CN(C(=O)c3cc(F)ccc3F)C[C@@H]21 [Example 130, 2-{[(1R,5S,6s)-3-(2,5-Difluorobenzoyl)-3-azabicyclo[3.1.0]hex-6-yl](methyl)amino}-6-(3-fluoropyridin-4-yl)-3-methylpyrimidin-4(3H)-one]	1.69 nM

Further lines, results first:

IC50	SMILES
18.3 nM	CC(C)CC(=O)N1C[C@@H]2[C@H](C1)[C@H]2N(C)c1nc(-c2ccncc2F)cc(=O)n1C [Example 110, 6-(3-Fluoropyridin-4-yl)-3-methyl-2-{methyl[(1R,5S,6s)-3-(3-methylbutanoyl)-3-azabicyclo[3.1.0]hex-6-yl]amino}pyrimidin-4(3H)-one]
15.3 nM	CC(C)C(=O)N1C[C@@H]2[C@H](C1)[C@H]2N(C)c1nc(-c2ccncc2F)cc(=O)n1C [Example 114, 6-(3-Fluoropyridin-4-yl)-2-{[(1R,5S,6s)-3-isobutyryl-3-azabicyclo[3.1.0]hex-6-yl](methyl)amino}-3-methylpyrimidin-4(3H)-one]
32.9 nM	CC(=O)O[C@@H](C)C(=O)N1C[C@@H]2[C@H](C1)[C@H]2N(C)c1nc(-c2ccncc2F)cc(=O)n1C [Example 119, (1S)-2-[(1R,5S,6R)-6-{[4-(3-Fluoropyridin-4-yl)-1-methyl-6-oxo-1,6-dihydropyrimidin-2-yl](methyl)amino}-3-azabicyclo[3.1.0]hex-3-yl]-1-methyl-2-oxoethyl acetate]
1.41 nM	CN(c1nc(-c2ccncc2F)cc(=O)n1C)[C@H]1[C@@H]2CN(C(=O)C(C)(C)C)C[C@@H]21 [Example 121, 2-{[(1R,5S,6s)-3-(2,2-Dimethylpropanoyl)-3-azabicyclo[3.1.0]hex-6-yl](methyl)amino}-6-(3-fluoropyridin-4-yl)-3-methylpyrimidin-4(3H)-one]
4.41 nM	CCC(CC)C(=O)N1C[C@@H]2[C@H](C1)[C@H]2N(C)c1nc(-c2ccncc2F)cc(=O)n1C [Example 127, 2-{[(1R,5S,6s)-3-(2-Ethylbutanoyl)-3-azabicyclo[3.1.0]hex-6-yl](methyl)amino}-6-(3-fluoropyridin-4-yl)-3-methylpyrimidin-4(3H)-one]
16.4 nM	CCCCC(=O)N1C[C@@H]2[C@H](C1)[C@H]2N(C)c1nc(-c2ccncc2F)cc(=O)n1C [Example 128, 6-(3-Fluoropyridin-4-yl)-3-methyl-2-{methyl[(1R,5S,6s)-3-pentanoyl-3-azabicyclo[3.1.0]hex-6-yl]amino}pyrimidin-4(3H)-one]
84.4 nM	COC(=O)CCC(=O)N1C[C@@H]2[C@H](C1)[C@H]2N(C)c1nc(-c2ccncc2F)cc(=O)n1C [Example 129, Methyl 4-[(1R,5S,6s)-6-{[4-(3-fluoropyridin-4-yl)-1-methyl-6-oxo-1,6-dihydropyrimidin-2-yl](methyl)amino}-3-azabicyclo[3.1.0]hex-3-yl]-4-oxobutanoate]
1.57 nM	CN(c1nc(-c2ccncc2F)cc(=O)n1C)[C@H]1[C@@H]2CN(C(=O)CC(C)(C)C)C[C@@H]21 [Example 131, 2-{[(1R,5S,6s)-3-(3,3-Dimethylbutanoyl)-3-azabicyclo[3.1.0]hex-6-yl](methyl)amino}-6-(3-fluoropyridin-4-yl)-3-methylpyrimidin-4(3H)-one]
